Measurements taken from patent US12594335B2, “Platinum-based drug-/photosensitizer-loaded protein nanoparticle, and preparation method therefor and application thereof” (SOOCHOW UNIVERSITY, priority 2020, dated 2026).

Tests used:
[1] = Serum biochemical indexes of liver and kidney functions; type: in vivo, Balb/c mice; conditions: 5 mg/kg Pt i.v. every other day, 3 times; serum on day 7, 14, 21, 28
Text: Inspection of biochemical indexes after action of nanoparticles: In order to determine the toxicity of drugs during metabolism in vivo, biochemical indexes of liver and kidney functions were investigated. […]

[2] = In-vitro chemical stability (UV absorbance of Ce6 within 72 h); type: physicochemical; conditions: water, phosphate buffer pH 5.5, pH 7.4, culture medium with 10% fetal bovine serum
Description: In-vitro stability of nanoparticles: (1) Chemical stability of nanoparticles: taking 0.1 mL of a nanoparticle solution with the concentration of Ce6 at 20 μmol/L and 0.1 mL of a free Ce6 solution with a concentration of 20 μmol/L, respectively, and adding them respectively to 2.9 mL of pure water, a phosphate buffer with pH 5.5, a phosphate buffer with pH 7.4, and a RPMI 1640 culture medium containing 10% fetal bovine serum; and storing at room temperature and away from light, with 3 copies for each environment. A UV-vis spectrophotometer was used to measure the absorbance change of Ce6 within 72 h.

[3] = Photostability under 660 nm laser irradiation; type: physicochemical
Description: (2) Photostability of nanoparticles: taking 0.1 mL of a nanoparticle solution with the concentration of Ce6 at 20 μmol/L and 0.1 mL of a free Ce6 solution with a concentration of 20 μmol/L, respectively, and adding them respectively to 2.9 mL of pure water, a phosphate buffer with pH 5.5, and a phosphate buffer with pH 7.4; and using a 660 nm laser with the power of 0.15 W/cm^2 to irradiate the solutions once every 30 s, and immediately measuring the ultraviolet absorption value with a UV-vis spectrophotometer until full 5 min of irradiation.

decrease of UV absorption with time [2] | photostability ([3]; 0.15 W/cm^2, up to 5 min, deionized water, pH 5.5 and pH 7.4 buffers) | time to completed photobleaching ([3]; acidic environment, 0.15 W/cm^2) [s] | Molecule | kidney indexes Urea and Crea [1] | liver indexes (ALT, AST, ALP) [1]
– | – | – | N.N.[Cl][Pt][Cl] [free CDDP, cis-dichlorodiammine platinum (II)] | increased rapidly | changed greatly
20%-40% | photobleached quickly | ≤ 120 | chlorin e6 [free Ce6] | – | –
